Test results reported in patent US20200187502A1, “MICROBIOCIDAL OXADIAZOLE DERIVATIVES” (SYNGENTA PARTICIPATIONS AG, priority 2017, published 2020).

Key:
[1] = tested on: Puccinia recondita f. Sp. Tritici; test: Fungicidal activity, wheat leaf disc preventative (brown rust); assay type: in vivo; conditions: foliar, 200 ppm in the applied formulation, wheat leaf segments cv. Kanzler, compared to untreated control, 7 to 9 days after application, read-out: disease control
Outline: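 Wheat cv. Kanzler leaf segments on agar were sprayed with formulated compound in water, then inoculated with spores 1 day later. Incubated at 19° C, 75% rh, 12 h light/12 h dark; percent disease control versus untreated scored 7 to 9 days after application.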

[2] = tested on: Puccinia recondita f. Sp. Tritici; test: Fungicidal activity, wheat leaf disc curative (brown rust); assay type: in vivo; conditions: foliar, 200 ppm in the applied formulation, wheat leaf segments cv. Kanzler, curative (applied 1 day after inoculation), compared to untreated control, 6 to 8 days after application, read-out: disease control
Outline: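 Read-out is percent disease control relative to untreated segments, assessed 6 to 8 days after treatment once check disease is adequate. Kanzler wheat leaf segments on agar receive fungal spores, then test compound (DMSO stock diluted in 0.025% Tween20 or water) 1 day later, under 19° C and 75% relative humidity.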

Phakopsora pachyrhizi = test: Fungicidal activity, soybean leaf disc preventative (Asian soybean rust); assay type: in vivo; conditions: foliar, 200 ppm in the applied formulation, soybean leaf disks, compared to untreated control, 12 to 14 days after application, read-out: disease control
Experimental: Leaf disks or leaf segments of various plant species are cut from plants grown in a greenhouse. The cut leaf disks or segments are placed in multiwell plates (24-well format) onto water agar. The leaf disks are sprayed with a test solution before (preventative) or after (curative) inoculation. Compounds to be tested are prepared as DMSO solutions (max. 10 mg/ml) which are diluted to the appropriate concentration with 0.025% Tween20 just before spraying. The inoculated leaf disks or segments are incubated under defined conditions (temperature, relative humidity, light, etc.) according to the respective test system. A single evaluation of disease level is carried out 3 to 14 days after inoculation, depending on the pathosystem. Percent disease control relative to the untreated check leaf disks or segments is then calculated.
Soybean leaf disks are placed on water agar in multiwell plates (24-well format) and sprayed with the formulated test compound diluted in water. One day after application leaf discs are inoculated by spraying a spore suspension on the lower leaf surface. After an incubation period in a climate cabinet of 24-36 hours in darkness at 20° C. and 75% rh leaf disc are kept at 20° C. with 12 h light/day and 75% rh. The activity of a compound is assessed as percent disease control compared to untreated when an appropriate level of disease damage appears in untreated check leaf disks (12 to 14 days after application).
The following compounds at 200 ppm in the applied formulation give at least 80% disease control in this test when compared to untreated control leaf disks under the same conditions, which show extensive disease development.

[3] = tested on: Glomerella lacenarium (Colletotrichum lacenarium); test: Fungicidal activity, liquid culture, cucumber preventative (anthracnose); assay type: cell-based; conditions: 20 ppm in the applied formulation, liquid culture in PDB, inhibition of growth measured photometrically 3 to 4 days after application, compared to untreated control, read-out: disease control
Outline: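 Photometric measurement of fungal growth inhibition 3 to 4 days after application gives percent activity relative to untreated check. Conidia were suspended in potato dextrose broth and combined with DMSO compound solutions; incubation at 24° C.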

COCC(=O)NCc1ccc(-c2noc(C(F)(F)F)n2)s1 [Compound 2.3, 2-methoxy-N-[[5-[5-(trifluoromethyl)-1,2,4-oxadiazol-3-yl]-2-thienyl]methyl]acetamide]
≥ 80%: pest or weed control at 200 ppm [1] | pest or weed control at 200 ppm [2] | pest or weed control at 200 ppm (Phakopsora pachyrhizi) | inhibition of growth at 20 ppm [3]

COCCC(=O)NCc1ccc(-c2noc(C(F)(F)F)n2)s1 [Compound 2.4, 3-methoxy-N-[[5-[5-(trifluoromethyl)-1,2,4-oxadiazol-3-yl]-2-thienyl]methyl]propanamide]
≥ 80%: pest or weed control at 200 ppm [1] | pest or weed control at 200 ppm [2] | pest or weed control at 200 ppm (Phakopsora pachyrhizi) | inhibition of growth at 20 ppm [3]

CCC(=O)NCc1ccc(-c2noc(C(F)(F)F)n2)s1 [Compound 2.5, N-[[5-[5-(trifluoromethyl)-1,2,4-oxadiazol-3-yl]-2-thienyl]methyl]propanamide]
≥ 80%: pest or weed control at 200 ppm [1] | pest or weed control at 200 ppm [2] | pest or weed control at 200 ppm (Phakopsora pachyrhizi) | inhibition of growth at 20 ppm [3]

COC(C)C(=O)NCc1ccc(-c2noc(C(F)(F)F)n2)s1 (stereo not shown) [Compound 2.6, 2-methoxy-N-[[5-[5-(trifluoromethyl)-1,2,4-oxadiazol-3-yl]-2-thienyl]methyl]propanamide]
≥ 80%: pest or weed control at 200 ppm [1] | pest or weed control at 200 ppm [2] | pest or weed control at 200 ppm (Phakopsora pachyrhizi) | inhibition of growth at 20 ppm [3]

CCC(C)C(=O)NCc1ccc(-c2noc(C(F)(F)F)n2)s1 (stereo not shown) [Compound 2.7, 2-methyl-N-[[5-[5-(trifluoromethyl)-1,2,4-oxadiazol-3-yl]-2-thienyl]methyl]butanamide]
≥ 80%: pest or weed control at 200 ppm [1] | pest or weed control at 200 ppm [2] | pest or weed control at 200 ppm (Phakopsora pachyrhizi) | inhibition of growth at 20 ppm [3]

CCCC(=O)NCc1ccc(-c2noc(C(F)(F)F)n2)s1 [Compound 2.8, N-[[5-[5-(trifluoromethyl)-1,2,4-oxadiazol-3-yl]-2-thienyl]methyl]butanamide]
≥ 80%: pest or weed control at 200 ppm [1] | pest or weed control at 200 ppm [2] | pest or weed control at 200 ppm (Phakopsora pachyrhizi) | inhibition of growth at 20 ppm [3]

CC(C)C(=O)NCc1ccc(-c2noc(C(F)(F)F)n2)s1 [Compound 2.9, 2-methyl-N-[[5-[5-(trifluoromethyl)-1,2,4-oxadiazol-3-yl]-2-thienyl]methyl]propanamide]
≥ 80%: pest or weed control at 200 ppm [1] | pest or weed control at 200 ppm [2] | pest or weed control at 200 ppm (Phakopsora pachyrhizi) | inhibition of growth at 20 ppm [3]

COCCCC(=O)NCc1ccc(-c2noc(C(F)(F)F)n2)s1 [Compound 2.10, 4-methoxy-N-[[5-[5-(trifluoromethyl)-1,2,4-oxadiazol-3-yl]-2-thienyl]methyl]butanamide]
≥ 80%: pest or weed control at 200 ppm [1] | pest or weed control at 200 ppm [2] | pest or weed control at 200 ppm (Phakopsora pachyrhizi) | inhibition of growth at 20 ppm [3]

CC(=O)NCc1ccc(-c2noc(C(F)(F)F)n2)s1 [Compound 2.11, N-[[5-[5-(trifluoromethyl)-1,2,4-oxadiazol-3-yl]-2-thienyl]methyl]acetamide]
≥ 80%: pest or weed control at 200 ppm [1] | pest or weed control at 200 ppm [2] | pest or weed control at 200 ppm (Phakopsora pachyrhizi) | inhibition of growth at 20 ppm [3]

O=C(CC(F)(F)F)NCc1ccc(-c2noc(C(F)(F)F)n2)s1 [Compound 2.12, 3,3,3-trifluoro-N-[[5-[5-(trifluoromethyl)-1,2,4-oxadiazol-3-yl]-2-thienyl]methyl]propanamide]
≥ 80%: pest or weed control at 200 ppm [1] | pest or weed control at 200 ppm [2] | pest or weed control at 200 ppm (Phakopsora pachyrhizi) | inhibition of growth at 20 ppm [3]

O=C(NCc1ccc(-c2noc(C(F)(F)F)n2)s1)C1CC1 [Compound 3.1, N-[[5-[5-(trifluoromethyl)-1,2,4-oxadiazol-3-yl]-2-thienyl]methyl]cyclopropanecarboxamide]
≥ 80%: pest or weed control at 200 ppm [1] | pest or weed control at 200 ppm [2] | pest or weed control at 200 ppm (Phakopsora pachyrhizi) | inhibition of growth at 20 ppm [3]

O=C(NCc1ccc(-c2noc(C(F)(F)F)n2)s1)C1CC1(F)F (stereo not shown) [Compound 3.2, 2,2-difluoro-N-[[5-[5-(trifluoromethyl)-1,2,4-oxadiazol-3-yl]-2-thienyl]methyl]cyclopropanecarboxamide]
≥ 80%: pest or weed control at 200 ppm [1] | pest or weed control at 200 ppm [2] | pest or weed control at 200 ppm (Phakopsora pachyrhizi) | inhibition of growth at 20 ppm [3]

O=C(NCc1ccc(-c2noc(C(F)(F)F)n2)s1)C1CCOC1 (stereo not shown) [Compound 3.3, N-[[5-[5-(trifluoromethyl)-1,2,4-oxadiazol-3-yl]-2-thienyl]methyl]tetrahydrofuran-3-carboxamide]
≥ 80%: pest or weed control at 200 ppm [1] | pest or weed control at 200 ppm [2] | pest or weed control at 200 ppm (Phakopsora pachyrhizi) | inhibition of growth at 20 ppm [3]

O=C(NCc1ccc(-c2noc(C(F)(F)F)n2)s1)C1CCC1 [Compound 3.4, N-[[5-[5-(trifluoromethyl)-1,2,4-oxadiazol-3-yl]-2-thienyl]methyl]cyclobutanecarboxamide]
≥ 80%: pest or weed control at 200 ppm [1] | pest or weed control at 200 ppm [2] | pest or weed control at 200 ppm (Phakopsora pachyrhizi) | inhibition of growth at 20 ppm [3]

CC1CC1C(=O)NCc1ccc(-c2noc(C(F)(F)F)n2)s1 (stereo not shown) [Compound 3.5, 2-methyl-N-[[5-[5-(trifluoromethyl)-1,2,4-oxadiazol-3-yl]-2-thienyl]methyl]cyclopropanecarboxamide]
≥ 80%: pest or weed control at 200 ppm [1] | pest or weed control at 200 ppm [2] | pest or weed control at 200 ppm (Phakopsora pachyrhizi) | inhibition of growth at 20 ppm [3]

CC1(C(=O)NCc2ccc(-c3noc(C(F)(F)F)n3)s2)CC1 [Compound 3.6, 1-methyl-N-[[5-[5-(trifluoromethyl)-1,2,4-oxadiazol-3-yl]-2-thienyl]methyl]cyclopropanecarboxamide]
≥ 80%: pest or weed control at 200 ppm [1] | pest or weed control at 200 ppm [2] | pest or weed control at 200 ppm (Phakopsora pachyrhizi) | inhibition of growth at 20 ppm [3]

CC1(C(=O)NCc2ccc(-c3noc(C(F)(F)F)n3)s2)COC1 [Compound 3.7, 3-methyl-N-[[5-[5-(trifluoromethyl)-1,2,4-oxadiazol-3-yl]-2-thienyl]methyl]oxetane-3-carboxamide]
≥ 80%: pest or weed control at 200 ppm [1] | pest or weed control at 200 ppm [2] | pest or weed control at 200 ppm (Phakopsora pachyrhizi) | inhibition of growth at 20 ppm [3]

O=C(NCc1ccc(-c2noc(C(F)(F)F)n2)s1)C1CCCO1 (stereo not shown) [Compound 3.8, N-[[5-[5-(trifluoromethyl)-1,2,4-oxadiazol-3-yl]-2-thienyl]methyl]tetrahydrofuran-2-carboxamide]
≥ 80%: pest or weed control at 200 ppm [1] | pest or weed control at 200 ppm [2] | pest or weed control at 200 ppm (Phakopsora pachyrhizi) | inhibition of growth at 20 ppm [3]

O=C(NCc1ccc(-c2noc(C(F)(F)F)n2)s1)c1ccccc1Cl [Compound 3.9, 2-chloro-N-[[5-[5-(trifluoromethyl)-1,2,4-oxadiazol-3-yl]-2-thienyl]methyl]benzamide]
≥ 80%: pest or weed control at 200 ppm [1] | pest or weed control at 200 ppm [2] | pest or weed control at 200 ppm (Phakopsora pachyrhizi) | inhibition of growth at 20 ppm [3]

O=C(CC1CC1)NCc1ccc(-c2noc(C(F)(F)F)n2)s1 [Compound 3.10, 2-cyclopropyl-N-[[5-[5-(trifluoromethyl)-1,2,4-oxadiazol-3-yl]-2-thienyl]methyl]acetamide]
≥ 80%: pest or weed control at 200 ppm [1] | pest or weed control at 200 ppm [2] | pest or weed control at 200 ppm (Phakopsora pachyrhizi) | inhibition of growth at 20 ppm [3]

CNC(=O)N(C)Cc1ccc(-c2noc(C(F)(F)F)n2)s1 [Compound 4.1, 1,3-dimethyl-1-[[5-[5-(trifluoromethyl)-1,2,4-oxadiazol-3-yl]-2-thienyl]methyl]urea]
≥ 80%: pest or weed control at 200 ppm [1] | pest or weed control at 200 ppm [2] | pest or weed control at 200 ppm (Phakopsora pachyrhizi) | inhibition of growth at 20 ppm [3]

CNC(=O)N(Cc1ccc(-c2noc(C(F)(F)F)n2)s1)C1CC1 [Compound 4.2, 1-cyclopropyl-3-methyl-1-[[5-[5-(trifluoromethyl)-1,2,4-oxadiazol-3-yl]-2-thienyl]methyl]urea]
≥ 80%: pest or weed control at 200 ppm [1] | pest or weed control at 200 ppm [2] | pest or weed control at 200 ppm (Phakopsora pachyrhizi) | inhibition of growth at 20 ppm [3]
